Source: patent US5530126A, “Process for the preparation of substituted 6-(pyrazol-3yl)-1,4-benzoxazin-3-ones” (Monsanto Company, priority 1994, dated 1996)

Key:
Type in all cases: in vivo
Annual bluegrass [1] = test: Pre-emergence herbicide test; conditions: read-out: % plant inhibition (Anbg); for inhibition at 1120 g/ha: 1.12 kg/ha; for inhibition at 11210 g/ha: 11.21 kg/ha
In short: (§1)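 Seeds or perennial propagules sown on compacted topsoil in pans; known amount of active ingredient in organic solvent (e.g., acetone) or water applied directly to seed bed, then covered with untreated topsoil. Greenhouse, bottom-watered; % inhibition scored about 10-14 days (usually 11 days) after seeding.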

Barnyardgrass [2] = test: Pre-emergence herbicide test; conditions: Echinochloa crus-galli, read-out: % plant inhibition (Bygr); for inhibition at 1120 g/ha: 1.12 kg/ha; for inhibition at 11210 g/ha: 11.21 kg/ha
In short: as §1

Cocklebur [3] = test: Pre-emergence herbicide test; conditions: Xanthium strumarium, read-out: % plant inhibition (Cobu); for inhibition at 1120 g/ha: 1.12 kg/ha; for inhibition at 11210 g/ha: 11.21 kg/ha
In short: as §1

Downy Brome [4] = test: Pre-emergence herbicide test; conditions: Bromus tectorum, read-out: % plant inhibition (Dobr); for inhibition at 1120 g/ha: 1.12 kg/ha; for inhibition at 11210 g/ha: 11.21 kg/ha
In short: as §1

Indian Mustard [5] = test: Pre-emergence herbicide test; conditions: Brassica juncea, read-out: % plant inhibition (Inmu); for inhibition at 1120 g/ha: 1.12 kg/ha; for inhibition at 11210 g/ha: 11.21 kg/ha
In short: as §1

Morningglory [6] = test: Pre-emergence herbicide test; conditions: Ipomoea, read-out: % plant inhibition (Mogl); for inhibition at 1120 g/ha: 1.12 kg/ha; for inhibition at 11210 g/ha: 11.21 kg/ha
In short: as §1

Seedling johnsongrass [7] = test: Pre-emergence herbicide test; conditions: Sorghum halepense, read-out: % plant inhibition (Sejg); for inhibition at 1120 g/ha: 1.12 kg/ha; for inhibition at 11210 g/ha: 11.21 kg/ha
In short: as §1

Velvetleaf [8] = test: Pre-emergence herbicide test; conditions: Abutilon theophrasti, read-out: % plant inhibition (Vele); for inhibition at 1120 g/ha: 1.12 kg/ha; for inhibition at 11210 g/ha: 11.21 kg/ha
In short: as §1

Wild buckwheat [9] = test: Pre-emergence herbicide test; conditions: Fallopia convolvulus, read-out: % plant inhibition (Wibw); for inhibition at 1120 g/ha: 1.12 kg/ha; for inhibition at 11210 g/ha: 11.21 kg/ha
In short: as §1

Yellow nutsedge [10] = test: Pre-emergence herbicide test; conditions: Cyperus, read-out: % plant inhibition (Yens); for inhibition at 1120 g/ha: 1.12 kg/ha; for inhibition at 11210 g/ha: 11.21 kg/ha
In short: as §1

Annual bluegrass [11] = test: Post-emergence herbicide test; conditions: read-out: % plant inhibition (Anbg); for inhibition at 1120 g/ha: 1.12 kg/ha; for inhibition at 11210 g/ha: 11.21 kg/ha
In short: (§2)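 Scoring: percent inhibition relative to control, usually 11 days post-treatment, with a later look near 25 days in some instances. Plants had been grown in greenhouse pans for two to three weeks before atomizer spraying at 1870 L/Ha.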

Barnyardgrass [12] = test: Post-emergence herbicide test; conditions: Echinochloa crus-galli, read-out: % plant inhibition (Bygr); for inhibition at 1120 g/ha: 1.12 kg/ha; for inhibition at 11210 g/ha: 11.21 kg/ha
In short: as §2

Cocklebur [13] = test: Post-emergence herbicide test; conditions: Xanthium strumarium, read-out: % plant inhibition (Cobu); for inhibition at 1120 g/ha: 1.12 kg/ha; for inhibition at 11210 g/ha: 11.21 kg/ha
In short: as §2

Downy Brome [14] = test: Post-emergence herbicide test; conditions: Bromus tectorum, read-out: % plant inhibition (Dobr); for inhibition at 1120 g/ha: 1.12 kg/ha; for inhibition at 11210 g/ha: 11.21 kg/ha
In short: as §2

Indian Mustard [15] = test: Post-emergence herbicide test; conditions: Brassica juncea, read-out: % plant inhibition (Inmu); for inhibition at 1120 g/ha: 1.12 kg/ha; for inhibition at 11210 g/ha: 11.21 kg/ha
In short: as §2

Morningglory [16] = test: Post-emergence herbicide test; conditions: Ipomoea, read-out: % plant inhibition (Mogl); for inhibition at 1120 g/ha: 1.12 kg/ha; for inhibition at 11210 g/ha: 11.21 kg/ha
In short: as §2

Seedling johnsongrass [17] = test: Post-emergence herbicide test; conditions: Sorghum halepense, read-out: % plant inhibition (Sejg); for inhibition at 1120 g/ha: 1.12 kg/ha; for inhibition at 11210 g/ha: 11.21 kg/ha
In short: as §2

Velvetleaf [18] = test: Post-emergence herbicide test; conditions: Abutilon theophrasti, read-out: % plant inhibition (Vele); for inhibition at 1120 g/ha: 1.12 kg/ha; for inhibition at 11210 g/ha: 11.21 kg/ha
In short: as §2

Wild buckwheat [19] = test: Post-emergence herbicide test; conditions: Fallopia convolvulus, read-out: % plant inhibition (Wibw); for inhibition at 1120 g/ha: 1.12 kg/ha; for inhibition at 11210 g/ha: 11.21 kg/ha
In short: as §2

Yellow nutsedge [20] = test: Post-emergence herbicide test; conditions: Cyperus, read-out: % plant inhibition (Yens); for inhibition at 1120 g/ha: 1.12 kg/ha; for inhibition at 11210 g/ha: 11.21 kg/ha
In short: as §2

Compound | inhibition at 1120 g/ha (Annual bluegrass [1]) | inhibition at 1120 g/ha (Barnyardgrass [2]) | inhibition at 1120 g/ha (Cocklebur [3]) | inhibition at 1120 g/ha (Downy Brome [4]) | inhibition at 1120 g/ha (Indian Mustard [5]) | inhibition at 1120 g/ha (Morningglory [6]) | inhibition at 1120 g/ha (Seedling johnsongrass [7]) | inhibition at 1120 g/ha (Velvetleaf [8]) | inhibition at 1120 g/ha (Wild buckwheat [9]) | inhibition at 1120 g/ha (Yellow nutsedge [10]) | inhibition at 1120 g/ha (Annual bluegrass [11]) | inhibition at 1120 g/ha (Barnyardgrass [12]) | inhibition at 1120 g/ha (Cocklebur [13]) | inhibition at 1120 g/ha (Downy Brome [14]) | inhibition at 1120 g/ha (Indian Mustard [15]) | inhibition at 1120 g/ha (Morningglory [16]) | inhibition at 1120 g/ha (Seedling johnsongrass [17]) | inhibition at 1120 g/ha (Velvetleaf [18]) | inhibition at 1120 g/ha (Wild buckwheat [19]) | inhibition at 1120 g/ha (Yellow nutsedge [20]) | further results
CC(C)COC(=O)c1cc(-c2nn(C)c(C(F)(F)F)c2Cl)c(F)cc1Cl [Compound 139] | 20% | 30% | 70% | 80% | 90% | 70% | 40% | 100% | 90% | 20% | 90% | 100% | 90% | 100% | 100% | 100% | 100% | 100% | 100% | 10% | –
CCOC(=O)CON=Cc1cc(-c2nn(C)c(C(F)(F)F)c2Cl)c(F)cc1Cl [Compound 129] | 0% | 20% | 90% | 40% | 90% | 100% | 60% | 100% | 100% | 0% | 40% | 80% | 100% | 80% | 90% | 90% | 90% | 100% | 100% | 30% | –
Cn1nc(-c2cc(C3OCCS3)c(Cl)cc2F)c(Cl)c1C(F)(F)F (stereo not drawn) [Compound 102] | 60% | 80% | 30% | 80% | 100% | 100% | 90% | 100% | 100% | 20% | 90% | 90% | 60% | 100% | 100% | 100% | 100% | 100% | 100% | 20% | –
Cn1nc(C(F)(F)F)c(Cl)c1-c1cc([N+](=O)[O-])c(F)cc1F [Compound 77] | – | – | – | – | – | – | – | – | – | – | – | – | – | – | – | – | – | – | – | – | inhibition at 11210 g/ha (Annual bluegrass [1]): 80%; inhibition at 11210 g/ha (Barnyardgrass [2]): 30%; inhibition at 11210 g/ha (Cocklebur [3]): 0%; inhibition at 11210 g/ha (Downy Brome [4]): 10%; inhibition at 11210 g/ha (Indian Mustard [5]): 30%; inhibition at 11210 g/ha (Morningglory [6]): 0%; inhibition at 11210 g/ha (Seedling johnsongrass [7]): 40%; inhibition at 11210 g/ha (Velvetleaf [8]): 30%; inhibition at 11210 g/ha (Wild buckwheat [9]): 20%; inhibition at 11210 g/ha (Yellow nutsedge [10]): 0%; inhibition at 11210 g/ha (Annual bluegrass [11]): 20%; inhibition at 11210 g/ha (Barnyardgrass [12]): 20%; inhibition at 11210 g/ha (Cocklebur [13]): 20%; inhibition at 11210 g/ha (Downy Brome [14]): 0%; inhibition at 11210 g/ha (Indian Mustard [15]): 60%; inhibition at 11210 g/ha (Morningglory [16]): 10%; inhibition at 11210 g/ha (Seedling johnsongrass [17]): 20%; inhibition at 11210 g/ha (Velvetleaf [18]): 30%; inhibition at 11210 g/ha (Wild buckwheat [19]): 60%; inhibition at 11210 g/ha (Yellow nutsedge [20]): 0%
CCOC(=O)C(C)OC(=O)c1cc(-c2nn(C)c(C(F)(F)F)c2Cl)c(F)cc1Cl (stereo not drawn) [Compound 138, 2-Chloro-5-(4-chloro-1-methyl-5-(trifluoromethyl)-1H-pyrazol-3-yl)-4-fluorobenzoic acid, 2-ethoxy-1-methyl-2-oxoethyl ester] | 40% | 50% | 100% | 90% | 100% | 100% | 30% | 100% | 100% | 20% | 100% | 100% | 100% | 100% | 100% | 100% | 100% | 100% | 100% | 20% | –
CC(C)OC(=O)COCc1cc(-c2nn(C)c(C(F)(F)F)c2Cl)c(F)cc1Cl [Compound 119] | – | – | – | – | – | – | – | – | – | – | – | – | – | – | – | – | – | – | – | – | inhibition at 11210 g/ha (Annual bluegrass [1]): 10%; inhibition at 11210 g/ha (Barnyardgrass [2]): 100%; inhibition at 11210 g/ha (Cocklebur [3]): 100%; inhibition at 11210 g/ha (Downy Brome [4]): 80%; inhibition at 11210 g/ha (Indian Mustard [5]): 100%; inhibition at 11210 g/ha (Morningglory [6]): 100%; inhibition at 11210 g/ha (Seedling johnsongrass [7]): 80%; inhibition at 11210 g/ha (Velvetleaf [8]): 100%; inhibition at 11210 g/ha (Wild buckwheat [9]): 100%; inhibition at 11210 g/ha (Yellow nutsedge [10]): 70%; inhibition at 11210 g/ha (Annual bluegrass [11]): 100%; inhibition at 11210 g/ha (Barnyardgrass [12]): 100%; inhibition at 11210 g/ha (Cocklebur [13]): 100%; inhibition at 11210 g/ha (Downy Brome [14]): 100%; inhibition at 11210 g/ha (Indian Mustard [15]): 100%; inhibition at 11210 g/ha (Morningglory [16]): 100%; inhibition at 11210 g/ha (Seedling johnsongrass [17]): 100%; inhibition at 11210 g/ha (Velvetleaf [18]): 100%; inhibition at 11210 g/ha (Wild buckwheat [19]): 100%; inhibition at 11210 g/ha (Yellow nutsedge [20]): 20%
Cn1nc(-c2cc(OCc3ccccn3)c(Cl)cc2F)c(Cl)c1C(F)(F)F [Compound 251] | 50% | 0% | 30% | 80% | 20% | 40% | 70% | 60% | 90% | 0% | 80% | 90% | 90% | 100% | 70% | 100% | 100% | 100% | 90% | 10% | –
Cn1nc(-c2cc(CC#N)c(Cl)cc2F)c(Cl)c1C(F)(F)F [Compound 115] | 40% | 80% | 20% | 70% | 100% | 80% | 70% | 100% | 90% | 0% | 40% | 80% | 60% | 20% | 60% | 60% | 40% | 100% | 100% | 20% | –
Cn1nc(-c2ccc(Cl)cc2)c(Cl)c1C(F)(F)F [Compound 82] | – | – | – | – | – | – | – | – | – | – | – | – | – | – | – | – | – | – | – | – | inhibition at 11210 g/ha (Annual bluegrass [1]): 60%; inhibition at 11210 g/ha (Barnyardgrass [2]): 100%; inhibition at 11210 g/ha (Cocklebur [3]): 40%; inhibition at 11210 g/ha (Downy Brome [4]): 100%; inhibition at 11210 g/ha (Indian Mustard [5]): 80%; inhibition at 11210 g/ha (Morningglory [6]): 100%; inhibition at 11210 g/ha (Seedling johnsongrass [7]): 100%; inhibition at 11210 g/ha (Velvetleaf [8]): 100%; inhibition at 11210 g/ha (Wild buckwheat [9]): 100%; inhibition at 11210 g/ha (Yellow nutsedge [10]): 30%; inhibition at 11210 g/ha (Annual bluegrass [11]): 0%; inhibition at 11210 g/ha (Barnyardgrass [12]): 30%; inhibition at 11210 g/ha (Cocklebur [13]): 0%; inhibition at 11210 g/ha (Downy Brome [14]): 20%; inhibition at 11210 g/ha (Indian Mustard [15]): 30%; inhibition at 11210 g/ha (Morningglory [16]): 90%; inhibition at 11210 g/ha (Seedling johnsongrass [17]): 40%; inhibition at 11210 g/ha (Velvetleaf [18]): 20%; inhibition at 11210 g/ha (Wild buckwheat [19]): 60%; inhibition at 11210 g/ha (Yellow nutsedge [20]): 10%
